One test concerns the target rat SUR2A (Rattus norvegicus, UniProt Q63563). Description: In vitro binding affinity to rodent KATP channels: SUR2A ([3H]P1075 / [3H]glibenclamide displacement, COS cell membranes). Here is the method:
Therefore, two strategies can be used to detect binding to the sulfonylurea site on SUR2A.
Membranes from COS-cells transiently expressing rat SUR2A were incubated in the presence of the radioligands with increasing concentrations of test compounds as described above. […] For each test compound four displacement curves were measured (displacement of [^3H]P1075 from the rat isoform of the wild type receptor and displacement of [^3H]glibenclamide from the rat isoform of SUR2AY1205S). Per curve 9-15 distinct concentrations were tested covering the relevant range. All measurements were repeated at least 5 times in independent experiments.
(§1) [^3H]glibenclamide (specific activity 51 Ci mmol^−1) was obtained from NEN (Dreieich, Germany). Where needed, stock solutions were prepared in dimethylsulfoxide with a final solvent concentration in the media below 1%.
(§2) SUR- or Kir6.x isoforms were used either subcloned in the pcDNA (hamster SUR1, mouse Kir6.2) or pCMV vector (rat SUR2A, SUR2B).
(§3) For transfection, the cells were incubated 4 hours in a Tris-buffered salt solution containing DNA (5-10 μg/ml) plus DEAE-dextran (1 mg/ml), 2 min in HEPES-buffered salt solution plus dimethylsulfoxide (10%) and 4 hours in DMEM-HG plus chloroquine (100 μM). Cells were then returned to DMEM-HG plus 10% FCS. […] For binding experiments, resuspended membranes (final protein concentration 5-50 μg/ml) were incubated in “Tris-buffer” (50 mM, pH 7.4) containing either [^3H]glibenclamide (final concentration 0.3 nM or 3 nM and nonspecific binding defined by 100 nM or 1 μM glibenclamide for SUR1 or SUR2Y1205S-isoforms, respectively) or [^3H]P1075 (final concentration 3 nM, nonspecific binding defined by 100 μM pinacidil) and increasing concentrations of the test compounds. The free Mg^2+ concentration were kept close to 0.7 mM. […] Incubations were carried out for 1 h at room temperature and were terminated by rapid filtration through Whatman GF/B filters.
(§4) The inhibition constant (Ki value) of the test substances was calculated from the respective IC50 value, and was stated as the negative logarithmic value thereof (pKi).

The target in the next test is T1, hamster SUR1 (Cricetus cricetus, UniProt Q09427).
T1 construct: expressed in transfected cells; host or cells: COS-1 cells, transient (pcDNA vector)
T1 sequence (Q09427 whole entry): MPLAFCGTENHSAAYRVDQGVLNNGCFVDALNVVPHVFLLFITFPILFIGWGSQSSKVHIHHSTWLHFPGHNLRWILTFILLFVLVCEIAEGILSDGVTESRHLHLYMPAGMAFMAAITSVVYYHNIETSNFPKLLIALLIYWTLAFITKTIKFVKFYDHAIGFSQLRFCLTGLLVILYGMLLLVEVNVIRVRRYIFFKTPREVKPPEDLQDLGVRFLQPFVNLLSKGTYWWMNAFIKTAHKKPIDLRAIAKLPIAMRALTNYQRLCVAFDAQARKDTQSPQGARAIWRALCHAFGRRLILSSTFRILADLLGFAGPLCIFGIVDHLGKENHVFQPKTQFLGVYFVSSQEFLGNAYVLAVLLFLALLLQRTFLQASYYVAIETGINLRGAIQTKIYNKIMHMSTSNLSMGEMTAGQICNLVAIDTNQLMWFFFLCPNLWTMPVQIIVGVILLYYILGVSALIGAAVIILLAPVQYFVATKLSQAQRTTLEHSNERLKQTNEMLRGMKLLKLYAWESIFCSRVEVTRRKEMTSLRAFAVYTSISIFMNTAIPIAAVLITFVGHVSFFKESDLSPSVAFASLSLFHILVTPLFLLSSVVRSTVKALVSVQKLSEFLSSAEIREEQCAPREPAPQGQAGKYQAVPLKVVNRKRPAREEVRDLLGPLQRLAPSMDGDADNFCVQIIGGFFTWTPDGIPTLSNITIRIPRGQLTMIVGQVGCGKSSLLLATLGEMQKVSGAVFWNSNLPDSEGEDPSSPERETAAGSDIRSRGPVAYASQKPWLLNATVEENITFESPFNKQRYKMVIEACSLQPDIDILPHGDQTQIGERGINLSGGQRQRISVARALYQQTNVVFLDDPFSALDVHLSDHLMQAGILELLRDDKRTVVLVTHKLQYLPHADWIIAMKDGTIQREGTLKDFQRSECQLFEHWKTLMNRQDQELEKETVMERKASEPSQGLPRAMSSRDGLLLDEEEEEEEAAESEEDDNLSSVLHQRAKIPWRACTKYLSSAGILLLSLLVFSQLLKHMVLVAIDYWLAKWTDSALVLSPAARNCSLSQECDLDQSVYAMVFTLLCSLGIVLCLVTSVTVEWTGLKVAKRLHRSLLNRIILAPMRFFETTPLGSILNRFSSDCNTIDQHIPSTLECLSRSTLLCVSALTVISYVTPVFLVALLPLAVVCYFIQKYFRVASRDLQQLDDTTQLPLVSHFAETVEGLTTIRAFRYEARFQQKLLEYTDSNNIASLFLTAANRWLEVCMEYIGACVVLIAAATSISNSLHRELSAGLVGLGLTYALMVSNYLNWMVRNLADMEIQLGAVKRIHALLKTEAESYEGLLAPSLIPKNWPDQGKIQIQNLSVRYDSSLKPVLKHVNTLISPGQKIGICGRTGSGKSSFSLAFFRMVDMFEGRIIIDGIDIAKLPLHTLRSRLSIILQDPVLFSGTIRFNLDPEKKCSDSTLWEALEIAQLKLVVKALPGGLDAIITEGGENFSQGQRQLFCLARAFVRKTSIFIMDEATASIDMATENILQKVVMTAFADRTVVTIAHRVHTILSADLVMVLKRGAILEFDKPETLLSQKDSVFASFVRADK
Put plainly: In vitro binding affinity to rodent KATP channels: SUR1 ([3H]glibenclamide displacement, COS cell membranes). Here is the method: 1. In Vitro Binding Affinity of the Test Compounds to Rodent KATP Channels
Competitive binding experiments were performed to characterize the affinity of the test compounds for the binding sites for sulfonylureas and KATP channel openers (KCOS) on hamster SUR1. To assess the affinity for the sulfonylurea site, membranes from COS-cells transiently expressing hamster SUR1 were incubated in the presence of [^3H]glibenclamide with increasing concentrations of test compounds. […] For each test compound four displacement curves were measured (+/−MgATP from the human and hamster isoform). Per curve 9-15 distinct concentrations were tested covering the relevant range. All measurements were repeated at least 5 times in independent experiments.
as §1, §2, §3, §4

Setting [1] is: hamster SUR1 in COS cell membranes, read-out: Affinity to SUR 1 (converted).
[2] abbreviates: rat SUR2A in COS cell membranes.

Like-named read-outs stand apart in the source and are kept apart here.

15 compounds from patent publication US20070254863A1 (priority 2006, published 2007) can be followed below.

rat SUR2A, sequence (Q63563 whole entry): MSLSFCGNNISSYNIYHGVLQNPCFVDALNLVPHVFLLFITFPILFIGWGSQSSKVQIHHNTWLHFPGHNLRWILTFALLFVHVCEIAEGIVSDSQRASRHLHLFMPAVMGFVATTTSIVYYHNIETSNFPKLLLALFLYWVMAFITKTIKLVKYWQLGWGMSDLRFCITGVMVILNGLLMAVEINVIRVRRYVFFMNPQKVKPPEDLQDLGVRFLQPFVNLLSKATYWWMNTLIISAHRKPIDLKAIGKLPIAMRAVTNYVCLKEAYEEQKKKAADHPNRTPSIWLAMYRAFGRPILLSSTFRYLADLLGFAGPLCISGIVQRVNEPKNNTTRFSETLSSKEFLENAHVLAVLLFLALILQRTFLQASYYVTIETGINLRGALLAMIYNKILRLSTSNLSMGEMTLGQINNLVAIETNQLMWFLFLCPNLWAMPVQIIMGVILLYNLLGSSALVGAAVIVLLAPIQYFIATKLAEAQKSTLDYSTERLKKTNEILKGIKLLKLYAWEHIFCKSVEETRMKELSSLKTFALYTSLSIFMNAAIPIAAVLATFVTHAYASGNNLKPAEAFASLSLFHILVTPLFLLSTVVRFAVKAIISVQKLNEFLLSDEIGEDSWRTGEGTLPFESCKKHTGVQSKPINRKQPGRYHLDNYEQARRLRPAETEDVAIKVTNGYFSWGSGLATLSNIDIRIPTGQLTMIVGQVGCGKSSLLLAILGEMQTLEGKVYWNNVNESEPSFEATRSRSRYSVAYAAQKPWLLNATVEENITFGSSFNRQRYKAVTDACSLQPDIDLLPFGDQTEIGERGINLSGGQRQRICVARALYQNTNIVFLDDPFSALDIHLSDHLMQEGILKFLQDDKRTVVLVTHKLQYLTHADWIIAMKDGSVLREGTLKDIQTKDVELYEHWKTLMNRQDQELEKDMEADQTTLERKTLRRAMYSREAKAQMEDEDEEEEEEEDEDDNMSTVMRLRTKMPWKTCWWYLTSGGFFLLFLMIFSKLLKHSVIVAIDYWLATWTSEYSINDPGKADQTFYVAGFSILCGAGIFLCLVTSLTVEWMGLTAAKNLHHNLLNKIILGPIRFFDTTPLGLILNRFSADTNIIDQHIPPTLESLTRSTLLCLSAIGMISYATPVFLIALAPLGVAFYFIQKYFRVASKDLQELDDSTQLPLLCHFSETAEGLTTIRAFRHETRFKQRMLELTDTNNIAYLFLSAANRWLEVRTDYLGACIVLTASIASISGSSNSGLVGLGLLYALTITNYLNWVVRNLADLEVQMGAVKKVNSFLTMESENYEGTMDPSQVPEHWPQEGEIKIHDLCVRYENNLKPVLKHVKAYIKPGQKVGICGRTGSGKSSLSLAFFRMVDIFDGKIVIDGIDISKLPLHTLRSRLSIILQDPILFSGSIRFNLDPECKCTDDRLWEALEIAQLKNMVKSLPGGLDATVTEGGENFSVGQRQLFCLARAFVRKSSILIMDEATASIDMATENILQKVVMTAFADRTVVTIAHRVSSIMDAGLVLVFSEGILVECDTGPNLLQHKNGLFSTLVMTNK

For orientation: pKi means −log10 of the Ki, conventionally taken in molar units. Read a low pKi as a high Ki. On rat SUR2A, `CNC(=NS(=O)(=O)c1ccc(Cl)cc1)N1CC(c2cccnc2)C(c2ccc(Cl)cc2)=N1` (stereo not drawn) yielded a pKi of 5.4. For the same compound, the Ki at hamster SUR1 (setting [1]) is 2510 nM.

On rat SUR2A (setting [2]), `Cn1c(C(=O)NC2CCCCC2)nc(-c2ccc(Cl)cc2Cl)c1-c1ccc(Cl)cc1` came in with a pKi of 4.9. In addition, the Ki at hamster SUR1 (setting [1]) was 100000 nM.

In turn, `O=S(=O)(N=C(NCC1CCNCC1)N1CC(c2ccccc2)C(c2ccc(Cl)cc2)=N1)c1ccc(Cl)cc1` (stereo not drawn) returned a pKi at rat SUR2A of 4.9. In addition, at hamster SUR1 (setting [1]), the Ki was 631 nM.

On rat SUR2A, `O=S(=O)(N=C(NCC1CC1)N1CC(c2ccccc2)C(c2ccc(Cl)cc2)=N1)N1CCOCC1` (stereo not drawn) displayed a pKi of 5.7. Further, the Ki on hamster SUR1 (setting [1]) was 1000 nM.

In the case of `CCCCCCC(C)(C)c1ccc([C@@H]2C[C@H](O)CC[C@@H]2CCCO)c(O)c1` (stereo in doubt) [CP55940-entantiomer, 5-(1,1-Dimethyl-heptyl)-2-[5-hydroxy-2-(3-hydroxy-propyl)-cyclohexyl]-phenol, reference compound], the Ki at hamster SUR1 (setting [1]) is 5010 nM.

On to `CCCCCCC(C)(C)c1cc(OC)c(C2C=C(CO)[C@H]3C[C@@H]2C3(C)C)c(OC)c1` (stereo in doubt) [HU308, {4-[4-(1,1-Dimethyl-heptyl)-2,6-dimethoxy-phenyl]-6,6-dimethyl-bicyclo[3.1.1]hept-2-en-2-yl}-methanol, reference compound], for which the Ki on hamster SUR1 is 398 nM.

Regarding `CCc1c(C(=O)NN2CCCCC2)nc(-c2ccc(Cl)cc2Cl)n1-c1ccc(Br)cc1` [1-(4-Bromo-phenyl)-2-(2,4-dichloro-phenyl)-5-ethyl-1H-imidazol-4-carboxylic acid piperidin-1-ylamide], the pKi at rat SUR2A was found to be 5.3. Moreover, the Ki at hamster SUR1 (setting [1]) was 3980 nM.

Take `CCCCCNC(=O)c1nc(-c2ccc(Cl)cc2Cl)n(-c2ccc(Br)cc2)c1CC` [1-(4-Bromo-phenyl)-2-(2,4-dichloro-phenyl)-5-ethyl-1H-imidazole-4-carboxylic acid pentylamide]: the pKi at rat SUR2A (setting [2]) is 5.6. Moreover, the Ki at hamster SUR1 (setting [1]) is 794 nM.

In the case of `CN1CCCC1CN/C(=N\S(=O)(=O)c1ccc(Cl)cc1)N1CC(c2ccccc2)C(c2ccc(Cl)cc2)=N1` (stereo not drawn) [4-Chloro-N-{[3-(4-chloro-phenyl)-4-phenyl-4,5-dihydro-pyrazol-1-yl]-[(1-methyl-pyrrolidin-2-ylmethyl)-amino]-methylene}-benzenesulfonamide], on rat SUR2A, the pKi turned out to be 5.1.

`CN/C(=N\S(=O)(=O)c1ccc(Cl)cc1)N1C[C@@H](c2ccccc2)C(c2ccc(Cl)cc2)=N1` [4-Chloro-N-{[3-(4-chloro-phenyl)-4-phenyl-4,5-dihydro-pyrazol-1-yl]-methylamino-methylene}-benzenesulfonamide]: the Ki on hamster SUR1 (setting [1]) is 1000 nM.

For `CCCCCCC(C)(C)c1cc(O)c2c(c1)OC(C)(C)[C@@H]1CC=C(CO)CC21` (stereo partly drawn) [HU-210, 3-(1,1-Dimethyl-heptyl)-9-hydroxymethyl-6,6-dimethyl-6a,7,10,10a-tetra hydro-6H-enzo[c]chromen-1-ol, reference compound], on hamster SUR1 (setting [1]), the Ki is 794 nM.

`CCCCCOc1c(OC)ccc2cc(C(=O)NCc3ccc4c(c3)OCO4)c(=O)[nH]c12` [JTE-907, 7-Methoxy-2-oxo-8-pentyloxy-1,2-di-hydro-quinoline-3-carboxylic acid (benzo[1,3]dioxol-5-ylmethyl)-amide, reference compound]: the Ki on hamster SUR1 (setting [1]) is 794 nM.

In the case of `Cc1c(NC(=O)c2ccccc2)nc(-c2ccc(Cl)cc2Cl)n1-c1ccc(Cl)cc1` [N-[1-(4-Chloro-phenyl)-2-(2,4-dichloro-phenyl)-5-methyl-1H-imidazol-4-yl]-benzamide], on hamster SUR1 (setting [1]), the Ki is 2000 nM.

With `CNC(=NS(=O)(=O)N1CCCCC1)N1C[C@H](c2ccccc2)C(c2ccc(Cl)cc2)=N1` [Piperidine-1-sulfonic acid [3-(4-chloro-phenyl)-4-phenyl-4,5-dihydro-pyrazol-1-yl]-methylamino-methyleneamide], the Ki at hamster SUR1 (setting [1]) is 1580 nM.

As to `Cc1ccc(Cn2nc(C(=O)N[C@@H]3C(C)(C)[C@@H]4CC[C@@]3(C)C4)cc2-c2ccc(Cl)c(C)c2)cc1` [SR 144528, reference compound], at hamster SUR1 (setting [1]), the Ki was 126 nM.
